Assay [1] deals with T1, phosphorylated LCK kinase (Homo sapiens, UniProt P06239, C224D/P223M).
T1 construct: starting from amino acid 223 to the end of the protein at amino acid 509; made in house; host or cells: insect cells
The assay is described as follows: Inhibition of phosphorylated LCK tyrosine kinase activity (coupled spectrophotometric assay). It counts as biochemical. To be noted: read-out: P-LCK % Inhibition at 1 μM. As to the method:
Cloning, expression and purification of the cytosolic domain of FGFR1 tyrosine kinase (amino acids 456-766) containing three amino acid substitutions (L457V, C488A, and C584S) were conducted as previously described (Mohammadi, M., Schiessinger, J., & Hubbard, S. R. Cell, 86, (1996) 577-587). This domain was expressed in Sf9 insect cells using a baculovirus expression vector, and protein was purified using conventional techniques. The LCK tyrosine kinase was expressed in insect cells as an N-terminal deletion starting from amino acid 223 to the end of the protein at amino acid 509. The N-terminus of the protein also had two amino acid substitutions, P223M and C224D. Kinases were purified using conventional chromatographic methods.
Tyrosine kinase activity was measured using a coupled, continuous spectrophotometric assay, in which production of phosphorylated poly(Glu,Tyr; 4:1) substrate and ADP is coupled to the pyruvate kinase-catalyzed transfer of a phosphate from phosphoenolpyruvate to ADP, with generation of pyruvate and regeneration of ATP. Pyruvate production is in turn coupled to the lactate dehydrogenase-catalyzed reduction of pyruvate to form lactate, with concomitant conversion of NADH to NAD^+. Loss of NADH is monitored by measuring absorbance at 340 nm (see e.g., Technikova-Dobrova et al., “Spectrophotometric Determination of Functional Characteristics of Protein Kinases with Coupled Enzymatic Assay,” FEBS Letters, 292 (1991), pp. 69-72). Enzyme activity was measured in the presence of 200 mM HEPES (pH 7.5), 2 mM phosphoenolpyruvate, 0.3 mM NADH, 20 mM MgCl2, 100 μM ATP, 5 mM DTT, 5.1 or 25 mM poly (Glu,Tyr) 4:1 for P-FGF or P-LCK assays, respectively, and 15 units/mL each of pyruvate kinase and lactate dehydrogenase. Phosphorylated FGF receptor kinase was present at 100 nM and phosphorylated LCK kinase was present at 50 nM. Assays were performed under initial rate conditions at 37° C., and rates were corrected for any background rate measured in the absence of enzyme. Percent inhibition was calculated relative to control enzyme assayed in the presence of 2% (v/v) DMSO.

Assay [2] concerns the target T2, human CDK1 (cdc2)/cyclin B (Homo sapiens, UniProt P06493).
T2 construct: purchased New England Biolabs (Beverly, Mass.)
Put plainly: Inhibition of CDK1 (cdc2)/cyclin B histone H1 kinase activity. The class given is biochemical. The conditions noted are these: histone H1 substrate. As to the method: Cyclin-dependent kinase activity was measured by quantifying the enzyme-catalyzed, time-dependent incorporation of radioactive phosphate from [^32P]ATP or [^33P]ATP into a protein substrate. Unless noted otherwise, assays were performed in 96-well plates in a total volume of 50 μL, in the presence of 10 mM HEPES (N-[2-hydroxyethyl]piperazine-N′-[2-ethanesulfonic acid]) (pH 7.4), 10 mM MgCl2, 25 μM adenosine triphosphate (ATP), 1 mg/mL ovalbumin, 5 μg/mL leupeptin, 1 mM dithiothreitol, 10 mM β-glycerophosphate, 0.1 mM sodium vanadate, 1 mM sodium fluoride, 2.5 mM ethylene glycol-bis(β-aminoethyl ether)-N,N,N′N′-tetraacetic acid (EGTA), 2% (v/v) dimethylsulfoxide, and 0.03-0.4 μCi [^32/33P]ATP per reaction. Reactions were initiated with enzyme, incubated at 30° C., and terminated after 20 minutes by the addition of ethylenediaminetetraacetic acid (EDTA) to 250 mM. The phosphorylated substrate was then captured on a nitrocellulose or phosphocellulose membrane using a 96-well filtration manifold, and unincorporated radioactivity was removed by repeated washing with 0.85% phosphoric acid. Radioactivity was quantified by exposing the dried membranes to a phosphorimager.
Compounds from combinatorial libraries were screened from 96-well plates for % inhibition of CDK activity at 30 nM theoretical compound concentration. Inhibition was measured relative to control wells that contained all reaction components including 2% (v/v) DMSO but no compound, after subtraction of background radioactivity measured in the absence of enzyme. Apparent Ki values of discrete compounds were measured by assaying enzyme activity in the presence of different inhibitor compound concentrations and subtracting the background radioactivity measured in the absence of enzyme. The kinetic parameters (kcat, Km for ATP) were measured for each enzyme under the usual assay conditions by determining the dependence of initial rates on ATP concentration. Inhibition data were fit to an equation for competitive inhibition using Kaleidagraph (Synergy Software), or were fit to an equation for competitive tight-binding inhibition using the software KineTic (BioKin, Ltd.).
The complex of human CDK1 (cdc2) and cyclin B was purchased from New England Biolabs (Beverly, Mass.). Alternatively, a CDK1/glutathione-S-transferase-cyclin B1 complex was purified using glutathione affinity chromatography from insect cells that had been co-infected with the corresponding baculovirus expression vectors. The assay was executed as described above at 30° C. using 2.5 units of cdc2/cyclin B, 10 μg Histone H1 protein, and 0.1-0.3 μCi [^32/33P]ATP per assay. Phosphorylated histone substrate was captured by microfiltration on a phosphocellulose P81 membrane and quantified using a phosphorimager as described above. Ki values were measured using the described curve-fitting programs.

The subject of the next assay is HCT-116 cell line. Put plainly: Inhibition of cell growth, MTT tetrazolium salt assay. It counts as cell-based. To be noted: Homo sapiens, HCT-116, 120 h, MTT, three to five days; for IC90: 90% inhibition of growth. The method in brief: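 Cells in McCoy's 5A medium were given 4 h before compound addition in 0.5% (v/v) DMSO, then incubated 3–5 days at 37 °C, 5% CO2. After 4 h with 0.2 mg/mL MTT, DMSO-solubilized formazan was read at 540 nm; 50% and 90% growth-inhibitory concentrations came from semi-log plots against vehicle controls.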
For orientation: Tetrazolium dyes change colour on reduction, which living cells bring about.

Counter-ions that a name gives are not always drawn.

This note sets out measurements from patent US6720346B2, “Thiazole benzamide derivatives and pharmaceutical compositions for inhibiting cell proliferation” (Agouron Pharmaceuticals, Inc., priority 2001, dated 2004).

In general, inhibition refers to how much of the control response was suppressed. One may read the Ki as the dissociation constant of the complex between target and ligand, obtained from inhibition or displacement. A word on the IC50: it is the point on the concentration scale where inhibition reaches its midpoint. Usually IC90 stands for the concentration at which the effect reaches the 90% level.

T1 sequence (P06239 223-509 P223M/C224D): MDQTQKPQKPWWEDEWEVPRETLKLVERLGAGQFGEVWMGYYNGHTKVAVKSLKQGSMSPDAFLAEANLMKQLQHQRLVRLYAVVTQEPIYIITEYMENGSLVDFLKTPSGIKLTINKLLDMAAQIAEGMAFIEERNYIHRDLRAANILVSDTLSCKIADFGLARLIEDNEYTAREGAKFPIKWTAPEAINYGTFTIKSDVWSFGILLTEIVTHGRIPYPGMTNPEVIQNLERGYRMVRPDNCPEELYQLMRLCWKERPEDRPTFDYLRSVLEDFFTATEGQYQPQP
T2 sequence (P06493 whole entry): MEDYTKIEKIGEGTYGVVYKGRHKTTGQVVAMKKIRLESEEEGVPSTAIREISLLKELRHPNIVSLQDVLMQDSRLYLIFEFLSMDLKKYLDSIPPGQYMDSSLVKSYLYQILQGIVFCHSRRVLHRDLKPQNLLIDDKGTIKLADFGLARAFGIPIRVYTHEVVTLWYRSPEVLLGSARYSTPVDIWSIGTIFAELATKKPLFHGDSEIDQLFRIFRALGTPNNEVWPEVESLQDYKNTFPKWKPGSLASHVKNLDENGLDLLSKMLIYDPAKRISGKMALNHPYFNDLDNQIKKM
T2 sequence (P14635 whole entry partner): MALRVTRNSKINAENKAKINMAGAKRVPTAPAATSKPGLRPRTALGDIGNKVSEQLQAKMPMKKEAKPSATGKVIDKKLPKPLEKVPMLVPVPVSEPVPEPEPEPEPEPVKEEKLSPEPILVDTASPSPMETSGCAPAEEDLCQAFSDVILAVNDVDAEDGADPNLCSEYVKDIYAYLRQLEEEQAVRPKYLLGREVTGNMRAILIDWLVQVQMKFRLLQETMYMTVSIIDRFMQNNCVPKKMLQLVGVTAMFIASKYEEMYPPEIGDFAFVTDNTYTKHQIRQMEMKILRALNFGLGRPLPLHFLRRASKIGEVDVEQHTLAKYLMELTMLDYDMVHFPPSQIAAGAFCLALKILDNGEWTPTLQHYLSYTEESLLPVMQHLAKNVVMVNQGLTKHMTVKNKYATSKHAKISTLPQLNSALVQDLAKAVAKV

For `Nc1nc(Nc2ccc(C(=O)NCCc3ccc(O)cc3)cc2)sc1C(=O)c1c(F)cccc1F` [Example A14, 4-[4-Amino-5-(2,6-difluoro-benzoyl)-thiazol-2-ylamino]-N-[2-(4-hydroxy-phenyl)-ethyl]-benzamide], in assay [1], the inhibition at 1 µM was found to be 0%. Moreover, the Ki in assay [2] came out at 42 nM. In the assay with HCT-116 cell line, the IC50 stood at 42 nM.
As for `Nc1nc(Nc2ccc(C(=O)NCCN3CCCCC3)cc2)sc1C(=O)c1c(F)cccc1F` [Example A15, 4-[4-Amino-5-(2,6-difluoro-benzoyl)-thiazol-2-ylamino]-N-(2-piperidin-1-yl-ethyl)-benzamide], in assay [1], the inhibition at 1 µM was 0%. Further, the Ki in assay [2] turned out to be 68 nM. In the assay on HCT-116 cell line, the IC50 came out at 90 nM.
For the compound `CC(CN(C)C)NC(=O)c1ccc(Nc2nc(N)c(C(=O)c3c(F)cccc3F)s2)cc1` (centres unmarked) [Example A20, 4-[4-Amino-5-(2,6-difluoro-benzoyl)-thiazol-2-ylamino]-N-(2-dimethylamino-1RS-methyl-ethyl)-benzamide Hydrochloride Salt], in assay [1], the inhibition at 1 µM was 0%. In assay [2], the Ki is 150 nM. Further, in the assay with HCT-116 cell line, the IC50 was 76 nM and the IC90 was 180 nM.
Take `Nc1nc(Nc2ccc(C(=O)Nc3ccc(N4CCOCC4)cc3)cc2)sc1C(=O)c1c(F)cccc1F` [Example A21]: the inhibition at 1 µM in assay [1] came out at 0%. Moreover, in assay [2], the Ki was 120 nM. The IC50 in the assay on HCT-116 cell line was found to be 100 nM.
For the compound `CN1CCC[C@H]1CNC(=O)c1ccc(Nc2nc(N)c(C(=O)c3c(F)cccc3F)s2)cc1` [Example A31, 4-[4-Amino-5-(2,6-difluoro-benzoyl)-thiazol-2-ylamino]-N-(1-methyl-pyrrolidin-2S-yl-methyl)-benzamide Dihydrochloride], the inhibition at 1 µM in assay [1] was 0%. In assay [2], the inhibition constant (Ki) is 82 nM. Besides, in the assay with HCT-116 cell line, the IC50 amounted to 30 nM and the IC90 was 70 nM.
